Test results: BindingDB's records for doi:10.1021/jm7012858 (Wyeth Research, 2008)

Experiments:
Assay in all cases: PI3K Inhibition Assay
[1] = molecular target: Phosphatidylinositol 4,5-bisphosphate 3-kinase catalytic subunit gamma isoform/Phosphoinositide 3-kinase regulatory subunit 5 (Homo sapiens, UniProt P48736); conditions: pH 7.5; 22 °C
Description: (§1) Inhibition of PI3K enzyme activity is measured in a microtiter plate-based fluorescence polarization (FP) assay.

[2] = molecular target: Phosphatidylinositol 3-kinase regulatory subunit beta/4,5-bisphosphate 3-kinase catalytic subunit delta isoform (Homo sapiens, UniProt O00329+O00459); conditions: pH 7.5; 22 °C
Description: as §1

[3] = molecular target: Phosphatidylinositol 3-kinase regulatory subunit beta/4,5-bisphosphate 3-kinase catalytic subunit beta isoform (Homo sapiens, UniProt P42338); conditions: pH 7.5; 22 °C
Description: as §1

[4] = molecular target: Phosphatidylinositol 3-kinase regulatory subunit alpha/4,5-bisphosphate 3-kinase catalytic subunit alpha isoform (Homo sapiens, UniProt P42336)
Description: as §1

Sequence of Phosphatidylinositol 3-kinase regulatory subunit alpha/4,5-bisphosphate 3-kinase catalytic subunit alpha isoform (P27986 whole entry, canonical isoform): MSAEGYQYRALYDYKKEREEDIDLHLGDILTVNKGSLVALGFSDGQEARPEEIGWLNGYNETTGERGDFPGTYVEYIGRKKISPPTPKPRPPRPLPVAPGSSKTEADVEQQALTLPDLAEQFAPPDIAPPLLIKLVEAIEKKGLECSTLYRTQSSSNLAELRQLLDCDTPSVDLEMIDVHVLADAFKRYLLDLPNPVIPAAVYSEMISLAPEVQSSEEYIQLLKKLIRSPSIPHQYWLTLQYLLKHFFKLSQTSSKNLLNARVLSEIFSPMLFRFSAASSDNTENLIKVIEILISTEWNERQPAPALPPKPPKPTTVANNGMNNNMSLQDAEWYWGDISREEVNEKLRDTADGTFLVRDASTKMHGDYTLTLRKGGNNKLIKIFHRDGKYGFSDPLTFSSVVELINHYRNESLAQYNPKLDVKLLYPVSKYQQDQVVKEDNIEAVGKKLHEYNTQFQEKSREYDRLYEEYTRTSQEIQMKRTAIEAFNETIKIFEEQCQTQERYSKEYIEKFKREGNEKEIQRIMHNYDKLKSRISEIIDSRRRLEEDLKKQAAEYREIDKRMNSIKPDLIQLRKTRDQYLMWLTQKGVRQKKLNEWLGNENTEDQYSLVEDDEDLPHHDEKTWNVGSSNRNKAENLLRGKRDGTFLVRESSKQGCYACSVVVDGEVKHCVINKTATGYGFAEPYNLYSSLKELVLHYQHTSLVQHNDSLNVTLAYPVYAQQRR
Sequence of Phosphatidylinositol 3-kinase regulatory subunit alpha/4,5-bisphosphate 3-kinase catalytic subunit alpha isoform (P42336 whole entry, canonical isoform): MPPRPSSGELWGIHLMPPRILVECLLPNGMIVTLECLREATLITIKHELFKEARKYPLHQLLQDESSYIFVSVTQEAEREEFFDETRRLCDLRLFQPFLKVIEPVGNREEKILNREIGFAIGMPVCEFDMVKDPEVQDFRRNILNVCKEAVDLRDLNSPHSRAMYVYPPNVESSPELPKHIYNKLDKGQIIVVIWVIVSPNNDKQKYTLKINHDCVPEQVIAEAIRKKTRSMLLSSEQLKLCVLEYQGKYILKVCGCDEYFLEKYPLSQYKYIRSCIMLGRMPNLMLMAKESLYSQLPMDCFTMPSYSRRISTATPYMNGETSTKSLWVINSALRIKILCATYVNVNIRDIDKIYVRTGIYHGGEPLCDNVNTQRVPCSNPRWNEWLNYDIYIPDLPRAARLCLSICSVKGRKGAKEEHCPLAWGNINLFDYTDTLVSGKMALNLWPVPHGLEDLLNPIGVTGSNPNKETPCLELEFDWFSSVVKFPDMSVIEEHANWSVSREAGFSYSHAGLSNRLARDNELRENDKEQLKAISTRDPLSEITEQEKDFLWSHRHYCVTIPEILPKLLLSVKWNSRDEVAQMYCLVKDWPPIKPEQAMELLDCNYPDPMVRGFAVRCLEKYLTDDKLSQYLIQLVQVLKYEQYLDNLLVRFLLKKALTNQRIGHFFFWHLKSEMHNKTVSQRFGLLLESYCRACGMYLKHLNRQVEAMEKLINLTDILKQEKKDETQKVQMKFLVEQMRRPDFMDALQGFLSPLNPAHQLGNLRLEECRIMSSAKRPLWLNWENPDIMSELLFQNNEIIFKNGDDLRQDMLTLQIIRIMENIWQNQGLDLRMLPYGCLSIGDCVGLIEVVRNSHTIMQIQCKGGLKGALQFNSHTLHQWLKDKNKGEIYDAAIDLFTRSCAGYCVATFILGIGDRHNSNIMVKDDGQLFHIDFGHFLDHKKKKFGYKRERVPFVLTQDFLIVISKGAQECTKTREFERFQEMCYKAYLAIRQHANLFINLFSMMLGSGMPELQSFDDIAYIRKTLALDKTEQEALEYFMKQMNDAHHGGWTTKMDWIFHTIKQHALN
Sequence of Phosphatidylinositol 4,5-bisphosphate 3-kinase catalytic subunit gamma isoform/Phosphoinositide 3-kinase regulatory subunit 5 (P48736 whole entry, canonical isoform): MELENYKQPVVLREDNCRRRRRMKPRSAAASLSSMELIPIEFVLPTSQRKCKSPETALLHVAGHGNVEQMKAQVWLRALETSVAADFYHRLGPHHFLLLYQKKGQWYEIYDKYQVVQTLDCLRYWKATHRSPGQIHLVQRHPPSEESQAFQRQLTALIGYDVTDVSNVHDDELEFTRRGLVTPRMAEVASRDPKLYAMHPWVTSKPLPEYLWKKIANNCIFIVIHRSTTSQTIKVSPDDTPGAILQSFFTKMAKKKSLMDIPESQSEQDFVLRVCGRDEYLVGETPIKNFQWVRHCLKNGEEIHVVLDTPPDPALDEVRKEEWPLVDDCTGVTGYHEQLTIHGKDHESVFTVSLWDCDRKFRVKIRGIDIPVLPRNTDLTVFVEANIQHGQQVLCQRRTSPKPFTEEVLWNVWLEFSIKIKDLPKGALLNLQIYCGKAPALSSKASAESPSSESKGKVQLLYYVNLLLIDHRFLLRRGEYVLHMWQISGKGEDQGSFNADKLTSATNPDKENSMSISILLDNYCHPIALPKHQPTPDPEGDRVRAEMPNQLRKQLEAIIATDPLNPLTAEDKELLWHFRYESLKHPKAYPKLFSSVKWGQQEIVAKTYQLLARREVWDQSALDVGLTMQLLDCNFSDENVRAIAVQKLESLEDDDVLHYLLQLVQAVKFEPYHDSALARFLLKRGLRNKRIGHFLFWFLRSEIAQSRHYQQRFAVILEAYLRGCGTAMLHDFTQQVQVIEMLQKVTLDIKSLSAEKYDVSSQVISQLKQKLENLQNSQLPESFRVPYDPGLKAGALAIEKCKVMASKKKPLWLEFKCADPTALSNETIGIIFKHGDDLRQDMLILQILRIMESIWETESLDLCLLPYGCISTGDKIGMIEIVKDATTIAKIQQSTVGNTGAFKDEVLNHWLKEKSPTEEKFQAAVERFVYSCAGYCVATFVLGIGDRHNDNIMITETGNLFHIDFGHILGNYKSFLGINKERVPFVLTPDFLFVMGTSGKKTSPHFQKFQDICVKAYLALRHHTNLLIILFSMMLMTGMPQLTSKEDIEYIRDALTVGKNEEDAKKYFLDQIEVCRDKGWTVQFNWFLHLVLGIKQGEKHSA
Sequence of Phosphatidylinositol 4,5-bisphosphate 3-kinase catalytic subunit gamma isoform/Phosphoinositide 3-kinase regulatory subunit 5 (Q8WYR1 whole entry, further chain, canonical isoform): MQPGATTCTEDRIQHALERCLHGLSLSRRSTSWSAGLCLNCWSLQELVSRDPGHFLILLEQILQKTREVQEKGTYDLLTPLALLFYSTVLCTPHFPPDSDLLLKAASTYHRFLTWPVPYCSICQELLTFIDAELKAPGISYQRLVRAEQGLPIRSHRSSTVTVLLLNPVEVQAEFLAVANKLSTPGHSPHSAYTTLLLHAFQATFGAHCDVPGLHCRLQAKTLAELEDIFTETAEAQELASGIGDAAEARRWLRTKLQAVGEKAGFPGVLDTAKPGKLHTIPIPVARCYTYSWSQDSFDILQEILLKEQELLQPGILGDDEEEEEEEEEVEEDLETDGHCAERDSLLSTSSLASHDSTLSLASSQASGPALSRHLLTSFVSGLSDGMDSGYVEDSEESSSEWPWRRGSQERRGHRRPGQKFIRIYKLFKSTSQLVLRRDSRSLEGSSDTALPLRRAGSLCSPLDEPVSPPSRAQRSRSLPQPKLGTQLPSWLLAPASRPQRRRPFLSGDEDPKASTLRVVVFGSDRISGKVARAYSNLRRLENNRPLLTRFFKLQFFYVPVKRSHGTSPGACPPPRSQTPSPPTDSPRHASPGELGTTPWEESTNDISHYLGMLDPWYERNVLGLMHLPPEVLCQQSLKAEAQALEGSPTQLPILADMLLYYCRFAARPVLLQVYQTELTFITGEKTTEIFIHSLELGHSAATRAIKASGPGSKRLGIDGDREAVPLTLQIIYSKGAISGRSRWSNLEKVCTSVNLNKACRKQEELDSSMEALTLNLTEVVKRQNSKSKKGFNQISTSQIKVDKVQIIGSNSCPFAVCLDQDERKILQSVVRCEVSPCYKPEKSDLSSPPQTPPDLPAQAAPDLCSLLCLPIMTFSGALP

Row | Compound | IC50 ([4]; pH 7.5, 22 °C) | other results
1 | COC[C@H]1OC(=O)C(=CN(C)CCCN(C)C)C2C(=O)C(=O)C3=C([C@H](OC(C)=O)C[C@@]4(C)C3CC[C@@H]4O)[C@]21C (stereo partly drawn) [(2R,3S,6Z,14S,15S,17R)-6-({[3-(dimethylamino)propyl](methyl)amino}methylidene)-8,14-dihydroxy-3-(methoxymethyl)-2,15-dimethyl-5,9-dioxo-4-oxatetracyclo[8.7.0.0^{2,7}.0^{11,15}]heptadeca-1(10),7-dien-17-yl acetate] | 6.4 nM | IC50 [1]: 8 nM; IC50 [2]: 11 nM; IC50 [3]: 13 nM
2 | COC[C@H]1OC(=O)C(=CNC(C)(C)C)C2C(=O)C(=O)C3=C([C@H](OC(C)=O)C[C@@]4(C)C3CC[C@@H]4O)[C@]21C (stereo partly drawn) [(2R,3S,6Z,14S,15S,17R)-6-[(tert-butylamino)methylidene]-8,14-dihydroxy-3-(methoxymethyl)-2,15-dimethyl-5,9-dioxo-4-oxatetracyclo[8.7.0.0^{2,7}.0^{11,15}]heptadeca-1(10),7-dien-17-yl acetate] | > 10000 nM | –
3 | CCCCN(C)C=C1C(=O)O[C@H](COC)[C@]2(C)C3=C(C(=O)C(=O)C12)C1CC[C@H](O)[C@@]1(C)C[C@H]3OC(C)=O (stereo partly drawn) [(2R,3S,6Z,14S,15S,17R)-6-{[butyl(methyl)amino]methylidene}-8,14-dihydroxy-3-(methoxymethyl)-2,15-dimethyl-5,9-dioxo-4-oxatetracyclo[8.7.0.0^{2,7}.0^{11,15}]heptadeca-1(10),7-dien-17-yl acetate] | 635 nM | –
4 | COC[C@H]1OC(=O)C(=CN(CCO)C(C)(C)C)C2C(=O)C(=O)C3=C([C@H](OC(C)=O)C[C@@]4(C)C3CC[C@@H]4O)[C@]21C (stereo partly drawn) [(2R,3S,6Z,14S,15S,17R)-6-{[tert-butyl(2-hydroxyethyl)amino]methylidene}-8,14-dihydroxy-3-(methoxymethyl)-2,15-dimethyl-5,9-dioxo-4-oxatetracyclo[8.7.0.0^{2,7}.0^{11,15}]heptadeca-1(10),7-dien-17-yl acetate] | 1110 nM | –
5 | COC[C@H]1OC(=O)C(=CN(C)C(C)(C)C)C2C(=O)C(=O)C3=C([C@H](OC(C)=O)C[C@@]4(C)C3CC[C@@H]4O)[C@]21C (stereo partly drawn) [(2R,3S,6Z,14S,15S,17R)-6-{[tert-butyl(methyl)amino]methylidene}-8,14-dihydroxy-3-(methoxymethyl)-2,15-dimethyl-5,9-dioxo-4-oxatetracyclo[8.7.0.0^{2,7}.0^{11,15}]heptadeca-1(10),7-dien-17-yl acetate] | 440 nM | –
6 | COC[C@H]1OC(=O)C(=CN2CCCC2)C2C(=O)C(=O)C3=C([C@H](OC(C)=O)C[C@@]4(C)C3CC[C@@H]4O)[C@]21C (stereo partly drawn) [(2R,3S,6Z,14S,15S,17R)-8,14-dihydroxy-3-(methoxymethyl)-2,15-dimethyl-5,9-dioxo-6-(pyrrolidin-1-ylmethylidene)-4-oxatetracyclo[8.7.0.0^{2,7}.0^{11,15}]heptadeca-1(10),7-dien-17-yl acetate] | 496 nM | –
7 | C=CCN(C=C1C(=O)O[C@H](COC)[C@]2(C)C3=C(C(=O)C(=O)C12)C1CCC(=O)[C@@]1(C)C[C@H]3OC(C)=O)CC=C (some centres not stated) [PX-866] | 88 nM | –
8 | COC[C@H]1OC(=O)C(=CN2CCC(C(=O)OC)CC2)C2C(=O)C(=O)C3=C([C@H](OC(C)=O)C[C@@]4(C)C3CC[C@@H]4O)[C@]21C (stereo partly drawn) [methyl 1-{[(2R,3S,6E,14S,15S,17R)-17-(acetyloxy)-8,14-dihydroxy-3-(methoxymethyl)-2,15-dimethyl-5,9-dioxo-4-oxatetracyclo[8.7.0.0^{2,7}.0^{11,15}]heptadeca-1(10),7-dien-6-ylidene]methyl}piperidine-4-carboxylate] | – | IC50 [4]: 31 nM
9 | COC[C@H]1OC(=O)C(=CN(C)CC(=O)OC(C)(C)C)C2C(=O)C(=O)C3=C([C@H](OC(C)=O)C[C@@]4(C)C3CC[C@@H]4O)[C@]21C (stereo partly drawn) [tert-butyl 2-({[(2R,3S,6E,14S,15S,17R)-17-(acetyloxy)-8,14-dihydroxy-3-(methoxymethyl)-2,15-dimethyl-5,9-dioxo-4-oxatetracyclo[8.7.0.0^{2,7}.0^{11,15}]heptadeca-1(10),7-dien-6-ylidene]methyl}(methyl)amino)acetate] | – | IC50 [4]: 1580 nM
